Test results: PubChem BioAssay AID248 (DTP/NCI, 2004)
Inconclusive results and toxic doses are left out. Rule as the data show it: active = T/C of 150% or more; inactive = T/C below 125%.

Tested on: L1210 leukemia ip in BDF1 mice, survival T/C
Assay: NCI In Vivo Anticancer Drug Screen. Data for tumor model L1210 Leukemia (intraperitoneal) in B6D2F1 (BDF1) mice
Details: endpoint: mean survival time, higher = longer survival
Summary of the method: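 Transplantable tumor model; survival measured in treated vs vehicle control mice. Value = treated/control.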

[1] = dose: 100.0 mg/kg/injection, schedule: Q04DX003 (ip), vehicle: saline with Tween-80
[2] = dose: 200.0 mg/kg/injection, schedule: Q04DX003 (ip), vehicle: saline with Tween-80
[3] = dose: 400.0 mg/kg/injection, schedule: Q04DX003 (ip), vehicle: saline with Tween-80
[4] = dose: 100.0 mg/kg/injection, schedule: Q01DX009 (ip), vehicle: Klucel (hydroxypropylcellulose) (HPC)
[5] = dose: 200.0 mg/kg/injection, schedule: Q01DX009 (ip), vehicle: Klucel (hydroxypropylcellulose) (HPC)
[6] = dose: 100.0 mg/kg/injection, schedule: Q04DX003 (ip), vehicle: Klucel (hydroxypropylcellulose) (HPC)
[7] = dose: 200.0 mg/kg/injection, schedule: Q04DX003 (ip), vehicle: Klucel (hydroxypropylcellulose) (HPC)
[8] = dose: 400.0 mg/kg/injection, schedule: Q04DX003 (ip), vehicle: Klucel (hydroxypropylcellulose) (HPC)
[9] = dose: 400.0 mg/kg/injection, schedule: Q01DX009 (ip), vehicle: Klucel (hydroxypropylcellulose) (HPC)

Measured: T/C

COc1ccc2nc(C)oc2c1
inactive: dose: 100.0 mg/kg/injection, schedule: Q04DX003 (ip), vehicle: acetone 97 % of control | dose: 200.0 mg/kg/injection, schedule: Q04DX003 (ip), vehicle: acetone 95 % of control | dose: 400.0 mg/kg/injection, schedule: Q04DX003 (ip), vehicle: acetone 97 % of control

CN(C)C(=O)CNc1ccc(S(=O)(=O)c2ccc(Cl)cc2)cc1
inactive: [1] 101 % of control | [2] 101 % of control | [3] 95 % of control

C=CCOCC(O)CNCC(O)COCC=C (stereo not drawn)
inactive: dose: 25.0 mg/kg/injection, schedule: Q01DX009 (ip), vehicle: saline with Tween-80 98 % of control | dose: 25.0 mg/kg/injection, schedule: Q04DX003 (ip), vehicle: saline with Tween-80 100 % of control | dose: 50.0 mg/kg/injection, schedule: Q01DX009 (ip), vehicle: saline with Tween-80 101 % of control | dose: 50.0 mg/kg/injection, schedule: Q04DX003 (ip), vehicle: saline with Tween-80 92 % of control | dose: 100.0 mg/kg/injection, schedule: Q01DX009 (ip), vehicle: saline with Tween-80 101 % of control | [1] 102 % of control

CCCC(CCC)=NCCCO
inactive: dose: 75.0 mg/kg/injection, schedule: Q01DX001 (ip), vehicle: carboxymethylcellulose (CMC) 96 % of control | dose: 150.0 mg/kg/injection, schedule: Q01DX001 (ip), vehicle: carboxymethylcellulose (CMC) 102 % of control

CCOC(=O)C(O)C(Cl)(CC)c1ccccc1 (stereo not drawn)
inactive: dose: 100.0 mg/kg/injection, schedule: Q04DX002 (ip), vehicle: Klucel (hydroxypropylcellulose) (HPC) 95 % of control | dose: 200.0 mg/kg/injection, schedule: Q04DX002 (ip), vehicle: Klucel (hydroxypropylcellulose) (HPC) 100 % of control | dose: 400.0 mg/kg/injection, schedule: Q04DX002 (ip), vehicle: Klucel (hydroxypropylcellulose) (HPC) 122 % of control

CC(=O)Oc1ccc(N)cc1OC(C)=O
inactive: dose: 150.0 mg/kg/injection, schedule: Q01DX001 (ip), vehicle: steriod suspending solution 95 % of control

CCOC(=O)NNC(=S)NCc1ccccc1
inactive: [4] 102 % of control | [5] 98 % of control

O=S(=O)(Cc1ccc(Cl)cc1Cl)Cc1ccc(Cl)cc1Cl
inactive: [6] 89 % of control | [7] 87 % of control | [8] 87 % of control

CCCCCCCCCCSC#N
inactive: dose: 5.0 mg/kg/injection, schedule: Q01DX001 (ip), vehicle: saline 103 % of control | dose: 10.0 mg/kg/injection, schedule: Q01DX001 (ip), vehicle: saline 97 % of control | dose: 20.0 mg/kg/injection, schedule: Q01DX001 (ip), vehicle: saline 105 % of control | dose: 20.0 mg/kg/injection, schedule: Q01DX009 (ip), vehicle: saline 111 % of control | dose: 20.0 mg/kg/injection, schedule: Q04DX003 (ip), vehicle: saline 100 % of control | dose: 40.0 mg/kg/injection, schedule: Q01DX001 (ip), vehicle: saline 97 % of control | dose: 40.0 mg/kg/injection, schedule: Q01DX009 (ip), vehicle: saline 106 % of control | dose: 40.0 mg/kg/injection, schedule: Q04DX003 (ip), vehicle: saline 100 % of control | dose: 80.0 mg/kg/injection, schedule: Q01DX009 (ip), vehicle: saline 100 % of control | dose: 80.0 mg/kg/injection, schedule: Q04DX003 (ip), vehicle: saline 101 % of control

CCCNC(=O)C1C2CCC(C2)C1C(=O)NCCC (stereo not drawn)
inactive: [1] 96 % of control | [2] 96 % of control | [3] 96 % of control

O=C(c1ccccc1)N1C(c2ccccc2)C1(c1ccccc1)C1(c2ccccc2)SCCCS1 (stereo not drawn)
inactive: [4] 94 % of control | [6] 108 % of control | [5] 101 % of control | [7] 100 % of control | [9] 91 % of control | [8] 97 % of control

CC(C)=CCCNC(=O)NS(=O)(=O)c1ccc(Cl)cc1
inactive: dose: 50.0 mg/kg/injection, schedule: Q01DX009 (ip), vehicle: Klucel (hydroxypropylcellulose) (HPC) 101 % of control | [4] 95 % of control | [6] 104 % of control | [5] 102 % of control | [7] 110 % of control | [8] 95 % of control

CCCCCCCCCCCOc1ccc(C=Nc2ccc(C)cc2)cc1
inactive: [6] 101 % of control | [7] 98 % of control | [8] 98 % of control

COc1ccc(CN2CCCN(Cc3ccc(OC)cc3OC)C2c2cc(Cl)ccc2O)c(OC)c1
inactive: dose: 50.0 mg/kg/injection, schedule: Q01DX001 (ip), vehicle: saline 95 % of control | dose: 100.0 mg/kg/injection, schedule: Q01DX001 (ip), vehicle: saline 86 % of control | dose: 200.0 mg/kg/injection, schedule: Q01DX001 (ip), vehicle: saline 95 % of control | dose: 400.0 mg/kg/injection, schedule: Q01DX001 (ip), vehicle: saline 86 % of control

CC(C)(C)NC(=O)NCCCN1CCOCC1
inactive: dose: 100.0 mg/kg/injection, schedule: Q04DX002 (ip), vehicle: saline 96 % of control | dose: 200.0 mg/kg/injection, schedule: Q04DX002 (ip), vehicle: saline 90 % of control | dose: 400.0 mg/kg/injection, schedule: Q04DX002 (ip), vehicle: saline 96 % of control

Oc1cc(-c2ccccc2)c(-c2ccccc2)c(-c2ccccc2)c1-c1ccccc1
inactive: dose: 100.0 mg/kg/injection, schedule: Q01DX001 (ip), vehicle: saline with Tween-80 100 % of control | dose: 200.0 mg/kg/injection, schedule: Q01DX001 (ip), vehicle: saline with Tween-80 90 % of control | dose: 400.0 mg/kg/injection, schedule: Q01DX001 (ip), vehicle: saline with Tween-80 88 % of control

CC1(C)N=C(N)N=C(N)N1c1cccc(OCCOc2ccc(NC(=O)/C=C/C(=O)O)cc2)c1
inactive: dose: 100.0 mg/kg/injection, schedule: Q01DX001 (ip), vehicle: carboxymethylcellulose (CMC) 101 % of control | dose: 200.0 mg/kg/injection, schedule: Q01DX001 (ip), vehicle: carboxymethylcellulose (CMC) 97 % of control | dose: 400.0 mg/kg/injection, schedule: Q01DX001 (ip), vehicle: carboxymethylcellulose (CMC) 94 % of control

O=C(c1ccccc1)c1ccc(C(=O)c2ccccc2)c2c1C(=O)c1ccccc1C2=O
inactive: [1] 92 % of control | [2] 95 % of control | [3] 98 % of control

Cc1c(Cl)cccc1NC(=O)c1ccccc1Cl
inactive: [4] 94 % of control | dose: 100.0 mg/kg/injection, schedule: Q04DX003 (ip), vehicle: saline 122 % of control | [5] 94 % of control | dose: 200.0 mg/kg/injection, schedule: Q04DX003 (ip), vehicle: saline 108 % of control | [9] 95 % of control | dose: 400.0 mg/kg/injection, schedule: Q04DX003 (ip), vehicle: saline 108 % of control
